Patent publication US20240239790A1, “7-Morpholino-1,6-Naphthyridin-5-yl Derivatives and Pharmaceutical Compositions Thereof Useful as DNA-PK Inhibitor” (adMare Therapeutics Society, priority 2021, published 2024)
Like-named read-outs stand apart in the source and are kept apart here.

How the values were obtained:
[1] = target: T1, DNA-PK phosphorylation at Serine 2056 (Homo sapiens, UniProt P78527); assay: Cellular Assay for Inhibition of DNA-PK Phosphorylation at Serine 2056 in FaDu cells (sandwich ELISA, neocarzinostatin); format: cell-based; details: pSer2056 DNA-PK, neocarzinostatin 1 μg/mL, Table 1
T1 construct: FaDu cells were purchased from ATCC; host or cells: FaDu
Summary of the method: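 pSer2056 and total DNA-PK were measured by sandwich ELISA in BCA-normalised FaDu lysates. Cells had 1 h compound exposure (0.3% DMSO), then 2 h with 1 μg/mL final neocarzinostatin. IC50 was fitted (variable slope) to % inhibition scaled against NCS-stimulated and DMSO-only controls.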

DNA-PK = target: T2, DNA-PK (Homo sapiens, UniProt P78527); assay: DNA-PK Assay for Biochemical Enzymatic Inhibition (ADP Glo Kinase assay); details: DNA-PK enzyme, Table 1
T2 construct: purchased Invitrogen PR9107A
Protocol: A biochemical assay was performed to identify IC50 values against DNA-PK activity in a two-step reaction with a kinase reaction followed by ADP Glo™ Kinase assay Kit (Promega V9102).
Three-fold serial dilutions of compounds in DMSO were prepared in kinase assay buffer (50 mM HEPES pH 7.5, 20 mM MgCl2, 100 mM KCl, 50 μM DTT, 10 μg/ml calf thymus DNA, 0.01% Tween 20). Kinase assay buffer was used to prepare compound treatments to 0.02% DMSO (dimethyl sulphoxide) content. DMSO controls were prepared to produce a maximum and minimum luminescence signal for normalization. Substrate (Anaspec, AS-60210-5) and ATP (Promega V9102) and ATP mix was prepared by dilution in kinase assay buffer for 434.4 μM and 64.4 μM final assay concentrations, respectively. Compounds and control were added to 25 ng DNA-PK enzyme (Invitrogen, PR9107A) diluted in kinase buffer in assay plate (Corning 267459) and incubated for 15 minutes at room temperature prior to addition of substrate and ATP mix.
Throughout the assay, each time a reagent was added to the microplate, it was centrifuged for 1 minute at 1300 rcf. All reagents were added, and incubations carried out at room temperature. The reaction was then incubated for 60 minutes. ADP-ATP standards at 0, 4, 10, 40, 80, and 100% ADP (prepared as specified in the ADP Glo™ Kinase assay kit) were also added to the microplate at a volume equal to the total kinase reaction. The ADP Glo™ Kinase Assay kit was then used to quantify DNA-PK activity: following the 60-minute incubation, a 1:1 volume of ADP Glo reagent was added to all wells, then following a further 45-minute incubation, a 1:1 volume of Kinase Detection Reagent was added to all wells. After this two-step assay, plates were incubated in a Synergy-Neo2 plate reader for 30 minutes with gentle shaking, followed by endpoint luminescent read Luminescence data was normalized by subtracting the background signal and expressing all background-adjusted values as a percentage of the average maximum signal. The data was then expressed as percent inhibition by subtracting from 100% (i.e. maximum luminescent signal will be 0% inhibition) and the resulting data plotted against ten concentration points on a logarithmic scale, using GraphPad Prism. Non-linear regression analysis was performed on each concentration response curve and the log [inhibitor] vs response—variable slope (four parameters) equation was selected to generate IC50 values.

[2] = system: pDNA-PK induction in HCT116 tumour spheroids; assay: Multicellular tumour spheroid + radiation, pDNA-PK (ser2056) inhibition, immunohistochemical endpoint, HCT116; format: cell-based; details: 20 Gy, 20% O2
Protocol: Multicellular tumour spheroids determination of compound inhibition of pDNA-PK induction following radiation. Tumour spheroids were grown to approximately 0.5 mm in diameter and irradiated with 20 Gy in combination with inhibitor test compounds to determine their potency. Inhibitor concentration for 50% reduction in pDNA-PK induction (IC50) was determined via immunohistochemical staining in spheroid cryosections taken 2 hours following radiation.
(§1) Spheroid+radiation pDNA-PK. Radiation: 20 Gy. Drug: serial dilution 5 or 10 μM down to 3.5 nM (11 wells). Spheroids: 3-6 spheroids per well (300-500 μm diameter). 20% 02 and 5% CO2. 96 well plate format.
Protocol: pre-incubate 1 hours with drug, irradiate with 20 Gy, post-incubate 2 hours with drug, freeze and cryosection ×3 replicates.
Endpoint: fluorescent immunostin pDNA-PK ser2056 and image on microscope.
Analysis: determine EC50 concentration that decreases pDNA-PK induction by 50% after radiation.
Multicellular tumour spheroids determination of compound inhibition of pDNA-PK induction following radiation. Tumour spheroids were grown to approximately 0.5 mm in diameter and irradiated with 20 Gy in combination with inhibitor test compounds to determine their potency. Inhibitor concentration for 50% reduction in pDNA-PK induction (IC50) was determined via immunohistochemical staining in spheroid cryosections taken 2 hours following radiation. For cell survival endpoint 8 Gy radiation was used and 3 hours following radiation spheroids were dissociated, counted and plated for colony forming endpoint.
as §1, with “format. Endpoint: fluorescent immunostain pDNA-PK ser2056 and image on microscope. Analysis: determine EC50 concentrations that decreases pDNA-PK induction by 50% after irradiation.” for “format.”
Multicellular tumour spheroids were used to determine potency of test compounds in a 3D tissue environment using inhibition of pDNA-PK induction following radiation or cell survival as the endpoint. For the pDNA-PK endpoint HCT116 or FaDU tumour spheroids were grown to approximately 0.5 mm in diameter and irradiated with 20 Gy in combination with inhibitor test compounds to determine their potency. Experiments were carried out in 96 well plates containing 0.7 mls of MEM media containing 10% FBS and 10 mM glucose under 20% O2 & 5% CO2 at 37° C. Following dilution of compounds 1:1000 from DMSO stocks, compounds were serially diluted from 10 μM down to 3.5 nM and 5-10 spheroids added. 96 well plates were constantly stirred to avoid spheroids settling during the course of the experiment. The inhibitor concentration for 50% reduction in pDNA-PK induction (EC50) was determined via immunohistochemical staining in spheroid cryosections taken 2 hours following radiation using anti-pDNA-PK (ser 2056) and fixed immediately in formalin following sectioning. For cell survival endpoint 8 Gy radiation was used and, 3 hours following radiation, spheroids were dissociated, counted and plated for colony forming endpoint. Data presented in the table compound potency as EC50 [μM].

[3] = Homo sapiens, HCT-116, 2 hours following radiation, Example 9 Study 2, read-out: Spheroid Cell line: HCT116 Immunohistochemical endpoint pDNA-PK inhibition EC50
[4] = Homo sapiens, HCT-116, Spheroid, Cell Line: HCT115 (so in the source), 2 hours following radiation, Example 7, read-out: EC50, Immunohistochemical endpoint, pDNA-PK inhibition
[5] = Homo sapiens, HCT-116, 2 h, spheroids, Example 8, read-out: Cell line: HCT116 Immunohistochemical endpoint pDNA-PK inhibition EC50

SMILES | IC50 [1] [nM] | IC50 (DNA-PK) [nM] | EC50 [2, 3] [nM] | EC50 [2, 4] [nM] | EC50 [2, 5] [nM] | EC50 ([2]; 2 hours following radiation, Example 9 Study 2, read-out: Spheroid Cell line: HCT116 Immunohistochemical endpoint pDNA-PK inhibition EC50) [nM] | EC50 ([2]; Spheroid, Cell Line: HCT115 (so in the source), 2 hours following radiation, Example 7, read-out: EC50, Immunohistochemical endpoint, pDNA-PK inhibition) [nM] | EC50 ([2]; spheroids, Example 8, read-out: Cell line: HCT116 Immunohistochemical endpoint pDNA-PK inhibition EC50) [nM]
CN(C)S(=O)(=O)Nc1cnc2cc(N3CCOCC3)nc(O[C@H]3CC[C@@H](Nc4ncccn4)CC3)c2c1 [Compound 194, N-[(1s,4s)-4-({3-[(dimethylsulfamoyl)amino]-7-(morpholin-4-yl)-1,6-naphthyridin-5-yl}oxy)cyclohexyl]pyrimidin-2-amine] | 100 to 1000 | < 0.5 | 1000 to 10000 | 1000 to 10000 |  |  |  | 
CCOC(=O)c1cnc(NC2CCOCC2)nc1N[C@H]1CC[C@@H](Oc2nc(N3CCOCC3)cc3ncccc23)CC1 [Compound 93, Ethyl 4-(((1s,4s)-4-((7-morpholino-1,6-naphthyridin-5-yl)oxy)cyclohexyl)amino)-2-((tetrahydro-2H-pyran-4-yl)amino)pyrimidine-5-carboxylate] | 1000 to 10000 | 10 to 150 | 10000 to 100000 | 10000 to 100000 |  |  |  | 
COC(=O)c1cnc2cc(N3CCOCC3)nc(O[C@H]3CC[C@@H](n4ccnc4)CC3)c2c1 [Compound 164, methyl 5-(((1s,4s)-4-(1H-imidazol-1-yl)cyclohexyl)oxy)-7-morpholino-1,6-naphthyridine-3-carboxylate] | 1000 to 10000 | 1 to 10 | 1000 to 10000 | 1000 to 10000 | 1000 to 10000 |  |  | 
O=S1(=O)CCCN1c1cnc2cc(N3CCOCC3)nc(O[C@H]3CC[C@@H](Nc4ncccn4)CC3)c2c1 [Compound 195, 2-(7-morpholino-5-(((1s,4s)-4-(pyrimidin-2-ylamino)cyclohexyl)oxy)-1,6-naphthyridin-3-yl)isothiazolidine 1,1-dioxide] | 1000 to 10000 | 10 to 150 | 10000 to 100000 | 10000 to 100000 |  |  |  | 
O=C(COc1cnc(N[C@H]2CC[C@@H](Oc3nc(N4CCOCC4)cc4ncccc34)CC2)nc1)N1CC(O)C1 [Compound 77, 1-(3-Hydroxyazetidin-1-yl)-2-((2-(((1s,4s)-4-((7-morpholino-1,6-naphthyridin-5-yl)oxy)cyclohexyl)amino)pyrimidin-5-yl)oxy)ethan-1-one] | 100 to 1000 | < 0.5 | 500 to 1000 | 500 to 1000 |  |  |  | 
CN(C)CCOc1cnc(C(=O)N[C@H]2CC[C@@H](Oc3nc(N4CCOCC4)cc4ncccc34)CC2)nc1 [Compound 126, 5-(2-(dimethylamino)ethoxy)-N-((1s,4s)-4-((7-morpholino-1,6-naphthyridin-5-yl)oxy)cyclohexyl)pyrimidine-2-carboxamide] | 1000 to 10000 | 1 to 10 | 10000 to 100000 | 10000 to 100000 |  |  |  | 
N=C(N)N[C@H]1CC[C@@H](Oc2nc(N3CCOCC3)cc3ncccc23)CC1 [Compound 16, 1-((1s,4s)-4-((7-morpholino-1,6-naphthyridin-5-yl)oxy)cyclohexyl)guanidine] | 1000 to 10000 | 1 to 10 |  |  |  | 10000 to 100000 | 10000 to 100000 | 10000 to 100000
CCOC(=O)c1cnc2cc(N3CCOCC3)nc(O[C@H]3CC[C@@H](Nc4ncc(OCC(=O)N(C)C)cn4)CC3)c2c1 [Compound 179, ethyl 5-(((1s,4s)-4-((5-(2-(dimethylamino)-2-oxoethoxy)pyrimidin-2-yl)amino)cyclohexyl)oxy)-7-morpholino-1,6-naphthyridine-3-carboxylate] | 1000 to 10000 | 1 to 10 | 10000 to 100000 | 10000 to 100000 | 1000 to 10000 |  |  | 
NC(=O)Nc1cnc2cc(N3CCOCC3)nc(O[C@H]3CC[C@@H](Nc4ncccn4)CC3)c2c1 [Compound 196, 1-(7-morpholino-5-(((1s,4s)-4-(pyrimidin-2-ylamino)cyclohexyl)oxy)-1,6-naphthyridin-3-yl)urea] | 100 to 1000 | 1 to 10 | 1000 to 10000 | 1000 to 10000 |  |  |  | 
O=C(O)COc1cnc(N[C@H]2CC[C@@H](Oc3nc(N4CCOCC4)cc4ncc(C(=O)O)cc34)CC2)nc1 [Compound 181, 5-(((1s,4s)-4-((5-(carboxymethoxy)pyrimidin-2-yl)amino)cyclohexyl)oxy)-7-morpholino-1,6-naphthyridine-3-carboxylic acid] | 10000 to 30000 | < 0.5 | 10000 to 100000 | 10000 to 100000 |  |  |  | 
O=C(Nc1ccc(F)cc1)N[C@H]1CC[C@@H](Oc2nc(N3CCOCC3)cc3ncccc23)CC1 [Compound 151, 1-(4-Fluorophenyl)-3-((1s,4s)-4-((7-morpholino-1,6-naphthyridin-5-yl)oxy)cyclohexyl)urea] | 100 to 1000 | 1 to 10 | 1000 to 10000 | 1000 to 10000 | 1000 to 10000 |  |  | 
O=C(COc1cnc(N[C@H]2CC[C@@H](Oc3nc(N4CCOCC4)cc4ncccc34)CC2)nc1)N1CCCC1 [Compound 74, 2-((2-(((1s,4s)-4-((7-Morpholino-1,6-naphthyridin-5-yl)oxy)cyclohexyl)amino)pyrimidin-5-yl)oxy)-1-(pyrrolidin-1-yl)ethan-1-one] | 100 to 1000 | 0.5 to 1 | 1000 to 10000 | 1000 to 10000 |  |  |  | 
O=S(=O)(Nc1cnc2cc(N3CCOCC3)nc(O[C@H]3CC[C@@H](Nc4ncccn4)CC3)c2c1)C1CCCC1 [Compound 190, N-(7-morpholino-5-(((1s,4s)-4-(pyrimidin-2-ylamino)cyclohexyl)oxy)-1,6-naphthyridin-3-yl)cyclopentanesulfonamide] |  | 10 to 150 | 10000 to 100000 | 10000 to 100000 |  |  |  | 
